In article PMC12091851, “Replacing a Cereblon Ligand by a DDB1 and CUL4 Associated Factor 11 (DCAF11) Recruiter Converts a Selective Histone Deacetylase 6 PROTAC into a Pan‐Degrader” (Chemmedchem, 2025):

Assays:
[1] = Aqueous stability assay in DPBS buffer (HPLC); format: physicochemical; settings: DPBS pH 7.4, 10% DMSO, room temperature, 72 hours
Method: and A6. Compounds were diluted in DPBS buffer (pH = 7.4; final DMSO concentration: 10%) and the remaining compound content was analyzed by HPLC. The peak area at 0 h was used for normalization.
Mean ± standard deviation of n = 2 replicates.
Figure S4. Analysis of time dependent degradation by 1j of HDAC1 (A) and HDAC6 (B) by Simple Western™ immunoassay analysis of MM.1S cell lysates. MM.1S cells were treated with 1j (10 µM) or vehicle (DMSO) for the indicated time period. Quantification of protein levels presented as mean ± standard deviation of n = 3 biological replicates. Si gnificance compared to vehicle: * = p≤0.05 , […]
2.5. Aqueous Stability Assay
For stability testing in aqueous solution, a 10-fold concentrated DMSO solution of the respective compounds was diluted in DPBS to generate a 10 µM concentration (final DMSO content of 10%).
Samples of the aqueous solutions were taken after 0, 24, 48, and 72 h at room temperature and the amounts of the parental compound and potential fragments were monitored by HPLC gradient A (see 3.1 General Information). The peak area of the 0 h sample was used for normalization. All compounds were tested in duplicates and GraphPad Prim was used for evaluation and data visualization.
The cell lysis was performed as descripted in 3.2. Simple Western Immunoassay. […]
Afterwards, proteins were transferred with the Trans -Blot Turbo Transfer System (Catalog# 1704150, Bio-Rad) to Immobilon-FL PVDF membranes (Catalog# IPFL00005, Mill ipore Merck, Burlington, MA, USA) at 1.0 A for 30 min and treated with 5% milk-powder solution for 1 h at room temperature under slight agitation. […] The ChemiDoc XRS+ System (Catalog# 1708265 , Bio-Rad) was used for detection and Image Lab Software 6.1 (Bio-Rad) for quantification. […]
In vitro inhibitory activities against HDAC1, 2 , and 6 were measured using a previously published protocol.[3] In vitro inhibitory activities against HDAC4 were measured using a previously published protocol with slight modifications. […]

MDA-MB-231 cells = experiment: Clonogenic growth assay; format: cell-based, human; settings: 10 μM for 48 h, nine days of growth
Method: Figure 9 Clonogenic growth assay of DCAF11‐recruiting PROTACs. MDA‐MB‐231 cells were treated with 10 μM of the respective compound or vehicle (DMSO) for 48 hours. (A) Representative images of crystal violet stained colonies after nine days of growth. (B) Quantification of counted colonies, presented as mean ± standard deviation of three biological replicates, each performed in triplicates. Significance of quantification compared to vehicle: ns=p≥0.05; **=p≤0.01 and ***=p≤0.001. […]
Subsequently, cells were harvested and
plated in 6-well plates at a density of 750 cells per well in triplicates. The cell culture medium was
changed after five days. Nine days after plating, the colonies were carefully washed with 500 µL DPBS
and stained with 500 µL crystal violet solution (0.5% in methanol). After 30 minutes of incubation at
room temperature, the wells were gently rinsed with deionized water. After counting the formed
colonies, GraphPad Prism (GraphPad Software) was used for bar graph creation. Significance testing
was performed with a one-way analysis of variance (ANOVA). Dunnett’s post-hoc test was employed
to obtain significance levels of each mean compared to a reference mean value.

MM.1S cells = experiment: Cell cycle analysis by PI staining and flow cytometry; format: cell-based, human; settings: 10 μM, 48 h
Method: GraphPad Prism (GraphPad Software). […]
Biotech), resuspended in 1 mL EtOH/D PBS (7/3 v/v), and fixed for 30 min at 4 °C. The samples were rehydrated with DPBS and treated with 5 µg /mL RNAse ( Catalog# EN0531 , ThermoFisher Scientific Inc.) for 15 min at room temperature. The staining was performed with 3 µM propidium iodide (in DPBS) for 15 min at room temperature and analyzed by flow cytometry ( Guava easyCyteTM, Luminex, […]
Lakes, NJ, USA), using the Watson Pragmatic algorithm.[6] GraphPad Prism (GraphPad Software) was used for normalization, statistical analysis, and bar graph creation. Significance testing was performed with a one-way analysis of variance (ANOVA). Dunnett’s post-hoc test was employed to obtain […]
Final DMSO concentration was 0.1%.
Staining was performed with
Fluorescence was measured by flow cytometry (Guava® easyCyteTM, Luminex, Austin, Texas). GraphPad Prism (GraphPad Software) was used for normalization, statistical analysis, and bar graph creation. Significance testing was performed with a one-way analysis of variance (ANOVA).
Subsequently, cells were harvested and […]
After 30 minutes of incubation at […]
Dunnett’s post-hoc test was employed

HDAC = settings: cited from earlier work

O=C(CCCCCCC(=O)Nc1ccccc1)NO [Vorinostat, vorinostat, reference compound]
decomposition / reduction in content in DPBS buffer [1]: remained intact
reduction of colonies (clonogenic growth) (MDA-MB-231 cells): less pronounced and not significant
effect on cell cycle phases (MM.1S cells): stronger effects on the different phases of the cell cycle

Cc1ncsc1-c1ccc([C@@H](C)NC(=O)[C@H]2C[C@H](O)CN2C(=O)[C@H](NC(=O)CCOCCOCCN(CCc2c[nH]c3ccccc23)Cc2ccc(/C=C/C(=O)NO)cc2)C(C)(C)C)cc1 [V]
degraded HDAC isoforms (HDAC): degraded HDAC3 and 8

O=C(CCCCCCC(=O)N/N=C/c1ccc(OCCOCCOCCn2cc(CNc3cccc4c3C(=O)N(C3CCC(=O)NC3=O)C4=O)nn2)cc1)NO (centres unmarked) [I]
degraded HDAC isoforms (HDAC): only HDAC6 was degraded
